Consider one compound from PubChem BioAssay AID504935 (The Scripps Research Institute Molecular Screening Center, 2011).

pIC50: −log10 of the molar value.

One assay has as its system U87 cell line. The assay is described as follows: U87 glioblastoma viability loss – cell-based, luminescence, U87 vII, cytotoxicity control for Wee1 degradation inhibitor project, dose response (AID 504935). The note with it: U87 cells cytotoxicity.
The subject of another assay is U87 vII cell line. The description is as above. The note with it: U87 cells cytotoxicity.

Regarding `O=[N+]([O-])c1cccc2[nH]c(CNc3nc(N4CCOCC4)nc4c3ncn4-c3ccsc3)nc12`, the pIC50 (usually the negative decadic logarithm of the IC50, by convention in mol/L) in the assay on U87 cell line is 7.02; with U87 vII cell line it was 7.63.
